The source of these data is paper PMC8466755, “GPCR Pharmacological Profiling of Aaptamine from the Philippine Sponge Stylissa sp. Extends Its Therapeutic Potential for Noncommunicable Diseases” (Molecules, 2021).

Structures are written as SMILES. “Also recorded” adds a separate entry of the source.

In one data set the target is T1, DRD4 (Homo sapiens, UniProt P21917).
T1 sequence (P21917 1-419): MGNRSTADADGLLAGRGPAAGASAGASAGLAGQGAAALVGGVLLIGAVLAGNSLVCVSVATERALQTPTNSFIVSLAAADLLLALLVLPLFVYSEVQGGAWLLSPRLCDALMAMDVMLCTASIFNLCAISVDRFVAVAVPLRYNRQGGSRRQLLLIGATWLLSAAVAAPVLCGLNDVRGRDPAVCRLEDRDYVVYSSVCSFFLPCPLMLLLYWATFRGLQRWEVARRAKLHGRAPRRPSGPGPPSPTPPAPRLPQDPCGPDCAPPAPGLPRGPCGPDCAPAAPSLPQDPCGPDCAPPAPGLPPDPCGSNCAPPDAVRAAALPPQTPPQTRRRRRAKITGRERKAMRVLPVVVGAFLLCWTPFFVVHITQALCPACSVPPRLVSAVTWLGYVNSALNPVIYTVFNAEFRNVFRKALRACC
The data set can be described thus: PathHunter β-arrestin assay, antagonist mode. The class given is cell-based.

For the next data set, the target named is T2, CCR1 (Homo sapiens, UniProt P32246).
T2 sequence (P32246 1-355): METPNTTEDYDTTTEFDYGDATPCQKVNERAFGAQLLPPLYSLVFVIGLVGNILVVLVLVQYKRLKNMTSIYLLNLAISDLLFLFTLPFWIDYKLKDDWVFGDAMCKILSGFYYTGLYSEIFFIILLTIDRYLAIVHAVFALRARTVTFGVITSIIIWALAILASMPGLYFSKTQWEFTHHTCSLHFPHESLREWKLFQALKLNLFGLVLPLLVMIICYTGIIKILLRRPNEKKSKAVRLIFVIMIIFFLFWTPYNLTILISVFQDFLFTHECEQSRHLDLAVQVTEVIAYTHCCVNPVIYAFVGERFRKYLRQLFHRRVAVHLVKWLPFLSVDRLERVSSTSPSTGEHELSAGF
The data set can be described thus: PathHunter β-arrestin assay, agonist mode. The data set is classed as cell-based. The method, then:
Aaptamine (20 µM) was profiled in gpcrMAX panel biosensor assays (in agonist and antagonist modes) against a panel of 168 GPCRs. The assay was performed by DiscoverX Corporation (Fremont, CA) using PathHunter β -arrestin enzyme fragment complementation (EFC) technology, in a similar way to that described elsewhere. The PathHunter cell lines were taken from freezer stocks according to standard procedures. A total of 20 µL of cells were seeded into white 384-well plates and incubated at 37 °C for the appropriate time prior to testing.
For agonist determination, aaptamine was incubated with PathHunter cell lines to induce a response. To increase the concentration, intermediate dilution from 20 µM of aaptamine was performed to generate a 5X sample in an assay buffer. Then, 5 µL of 5X sample was added to the plate with PathHunter cells and incubated for 90 or 180 min at 37 °C or room temperature. The percentage activity of aaptamine was calculated following this formula: % activity = 100% × (mean RLU of test sample − mean RLU of vehicle control)/(mean MAX control ligand − mean RLU of vehicle control).
Hit validation was performed by subjecting the aaptamine to an agonist, antagonist, and positive allosteric modulation (PAM) secondary screen utilizing thirteen GPCR biosensor assays (Arrestin) against the following targets: ADRA2A, ADRA2C, ADRB2, CCR1, CCR3, CXCR3, CXCR7, DRD2L, DRD2S, DRD4, HTR1E, OPRK1, and SSTR1. The assays were performed at 10-point concentrations using three-fold serial dilutions in duplicate. For all the assay formats, the final assay vehicle concentration was 1%.

In data set [1] the test system is Saccharomyces cerevisiae (BY4741). The data set is described as follows: Yeast growth inhibition assay. The class given is cell-based. The settings on record: up to 50 µM, 24 h. The source says: Each treatment was done in triplicate.
The next data set deals with SSTR1 (Homo sapiens, UniProt P30872). The data set is described as follows: PathHunter β-arrestin assay, positive allosteric modulation (PAM) mode. To be noted: dose-response, control agonist at EC20. The data set is classed as cell-based.
A further data set addresses OPRK1 (Homo sapiens, UniProt P41145). Described as above. The data set is classed as cell-based. To be noted: dose-response, control agonist at EC20.
The target in data set [2] is T3, purified 20S proteasome from human erythrocytes (Homo sapiens, UniProt P28074).
T3 construct: purified 20S proteasome from human erythrocyte; purchased Enzo Life Sciences; host or cells: human erythrocytes (tissue-purified)
The data set can be described thus: 20S proteasome chymotrypsin-like activity assay (Suc-LLVY-AMC). The class given is biochemical. The method, then:
Aaptamine was tested against HCT116 colon cancer cells and cell viability was assessed after 48 h using an MTT (3-(4,5-dimethyl dimethylthiazol-2-yl)-2,5-diphenyltetrazolium bromide) assay. […] The results agreed with the findings of Kobayashi et al. that aaptamine at concentrations of 20–50 µM increased the expression of the cyclin-dependent kinase inhibitor p21, a protein known to act as a negative regulator of cell cycle progression, thus preventing cell proliferation. […] To alternatively explain the activity of aaptamine, we tested the compound for its ability to inhibit the chymotrypsin-like activity of a purified 20S proteasome from human erythrocytes. Proteasome inhibitors are validated anticancer agents. Aaptamine was able to inhibit the enzyme activity by 41% at 50 µM (Figure 2b). […] In our study, aaptamine had similar IC50 values for cancer cell growth inhibition and proteasome inhibition in vitro (~50 µM).
The 20S proteasome assay kit from Enzo Life Sciences (NY, USA) is a fluorogenic, non-radioactive assay designed to measure the chymotrypsin-like protease activity of purified 20S proteasome from human erythrocyte. […] The fluorescence was then measured at an excitation of 360 nm and emission of 460 nm using a SpectraMax M5 plate reader (Molecular Device). The data were recorded every 2 min for 20 min. […]

Another data set relates to HeLa cells. The arrangement: method as in PMID 20451377. The settings on record: read-out: cytotoxicity against HeLa cells IC50; cited from earlier work.
Another data set has as its system p21. Further details: method as in doi:10.1016/j.tetlet.2007.01.113. The settings on record: cited from earlier work.
The target in the next data set is ADRA2C (Homo sapiens, UniProt P18825). The data set is described as follows: PathHunter β-arrestin assay, antagonist mode. The class given is cell-based.
[3] abbreviates: dose-response analysis, read-out: Dose-Response Maximal Response, % Inhibition.

SSTR1, sequence (P30872 whole entry): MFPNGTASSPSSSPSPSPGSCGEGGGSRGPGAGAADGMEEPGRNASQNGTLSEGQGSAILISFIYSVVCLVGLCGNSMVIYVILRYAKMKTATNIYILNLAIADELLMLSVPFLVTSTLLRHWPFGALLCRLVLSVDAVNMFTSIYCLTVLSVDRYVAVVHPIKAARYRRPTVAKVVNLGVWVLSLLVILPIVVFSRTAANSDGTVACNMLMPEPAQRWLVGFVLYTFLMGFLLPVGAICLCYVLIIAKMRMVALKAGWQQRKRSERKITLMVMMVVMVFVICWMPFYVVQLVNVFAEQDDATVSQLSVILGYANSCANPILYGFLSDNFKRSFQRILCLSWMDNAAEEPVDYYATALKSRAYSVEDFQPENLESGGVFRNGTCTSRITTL
OPRK1, sequence (P41145 whole entry): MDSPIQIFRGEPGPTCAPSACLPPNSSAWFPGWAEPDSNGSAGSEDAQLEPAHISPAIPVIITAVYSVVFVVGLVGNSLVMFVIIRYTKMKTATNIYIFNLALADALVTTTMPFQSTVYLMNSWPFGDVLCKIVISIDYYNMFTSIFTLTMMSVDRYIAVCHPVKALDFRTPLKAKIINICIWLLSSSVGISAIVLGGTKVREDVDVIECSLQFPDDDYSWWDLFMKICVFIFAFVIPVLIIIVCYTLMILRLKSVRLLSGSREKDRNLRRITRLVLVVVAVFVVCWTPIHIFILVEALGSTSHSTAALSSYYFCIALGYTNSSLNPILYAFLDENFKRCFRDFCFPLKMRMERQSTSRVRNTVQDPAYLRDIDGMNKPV
ADRA2C, sequence (P18825 whole entry): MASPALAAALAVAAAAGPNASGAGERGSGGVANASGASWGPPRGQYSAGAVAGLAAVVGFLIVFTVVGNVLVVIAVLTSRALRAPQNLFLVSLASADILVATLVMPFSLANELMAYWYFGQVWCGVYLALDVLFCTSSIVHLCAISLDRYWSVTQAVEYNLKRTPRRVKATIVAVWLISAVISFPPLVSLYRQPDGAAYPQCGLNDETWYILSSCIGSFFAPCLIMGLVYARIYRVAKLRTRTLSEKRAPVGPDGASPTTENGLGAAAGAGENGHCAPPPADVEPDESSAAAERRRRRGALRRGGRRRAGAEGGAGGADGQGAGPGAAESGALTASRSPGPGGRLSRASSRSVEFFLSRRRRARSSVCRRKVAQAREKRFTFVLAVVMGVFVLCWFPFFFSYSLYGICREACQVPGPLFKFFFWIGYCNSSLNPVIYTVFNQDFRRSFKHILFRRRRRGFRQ
Method for ADRA2C: (§1) The assay was performed by DiscoverX Corporation (Fremont, CA) using PathHunter β -arrestin enzyme fragment complementation (EFC) technology, in a similar way to that described elsewhere [35, 36]. The PathHunter cell lines were taken from freezer stocks according to standard procedures. A total of 20 µL of cells were seeded into white 384-well plates and incubated at 37 °C for the appropriate time prior to testing.
(§2) In this assay format, the standard agonist was added at an EC80 concentration. To the plate that contained the cells, 5 µL of the 5X sample was added and incubated for 30 min at 37 °C or room temperature. After the incubation period, 5 µL of the 6X EC80 agonist in an assay buffer was added to the cells and incubated for additional 90 or 180 min at 37 °C or room temperature.
Method for DRD4: as §1, §2
Method for OPRK1: (§3) For PAM assays, the cells were preincubated with the sample followed by agonist induction at the EC20 concentration. To the cells, 5 µL of 5X sample was added and incubated for 30 min at 37 °C or room temperature. Following the incubation period, 5 µL of the 6X EC20 agonist prepared in an assay buffer was added to the cells and incubated for 90 or 180 min at 37 °C or room temperature.
Method for SSTR1: as §3

Take `COc1cc2ccnc3c2c(c1OC)NC=C3` [aaptamine]: the Emax at DRD4 (setting [3]) was 94.5%; on CCR1 (dose-response analysis, read-out: Dose-Response Maximal Response, % Activation), 50.2%; at ADRA2C (setting [3]) it was 104%. In addition, the IC50 was 6.9 µM against DRD4 (dose-response, antagonist mode); approximately 50 µM in data set [2] (read-out: IC50 proteasome inhibition in vitro); 66 µM in the data set with HeLa cells; 11.9 µM on ADRA2C (dose-response, antagonist mode). Moreover, at DRD4 (versus DRD2S and DRD2L, from IC50 values), the “selectivity for DRD4 among the dopamine receptors” value is on record as 3.7- to 5.6 fold. The concentration giving a half-maximal response (EC50) on CCR1 (dose-response, agonist mode) is 11.8 µM. For the same compound, the growth inhibitory activity entry in data set [1] is given as “did not observe growth inhibitory activity”. In addition, the “validation of potentiator hit under PAM conditions” value at SSTR1 and on OPRK1 was “false positives; also recorded: did not validate” each time. Besides, the inhibition at 50 µM in [2] (50 µM, 10 min preincubation, read-out: inhibition of enzyme activity (chymotrypsin-like)) stood at 41%. Also, the “concentrations that increased the expression of p21” value in the data set with p21 was 20 to 50 µM.

A word on the IC50: it is the concentration needed to halve the response being measured. One may read the EC50 as the midpoint of the concentration-response curve. Low readings indicate a more potent agent, high ones a less potent agent. As a reminder, the inhibition is the drop in the measured response relative to a control, in per cent.
